Here are results for twelve molecules from patent US20250230165A1, “HETEROCYCLIC COMPOUNDS FOR USE IN THE TREATMENT OF CANCER” (ARTIOS PHARMA LIMITED, priority 2021, published 2025).

The structures appear in SMILES notation.

This test has as its target T1, Human Polθ polymerase domain (aa1820-2590) (Homo sapiens, UniProt O75417).
T1 construct: Human Polθ polymerase domain (aa1820-2590) was expressed in E. coli; made in house; host or cells: E. coli
T1 sequence (O75417 1820-2590): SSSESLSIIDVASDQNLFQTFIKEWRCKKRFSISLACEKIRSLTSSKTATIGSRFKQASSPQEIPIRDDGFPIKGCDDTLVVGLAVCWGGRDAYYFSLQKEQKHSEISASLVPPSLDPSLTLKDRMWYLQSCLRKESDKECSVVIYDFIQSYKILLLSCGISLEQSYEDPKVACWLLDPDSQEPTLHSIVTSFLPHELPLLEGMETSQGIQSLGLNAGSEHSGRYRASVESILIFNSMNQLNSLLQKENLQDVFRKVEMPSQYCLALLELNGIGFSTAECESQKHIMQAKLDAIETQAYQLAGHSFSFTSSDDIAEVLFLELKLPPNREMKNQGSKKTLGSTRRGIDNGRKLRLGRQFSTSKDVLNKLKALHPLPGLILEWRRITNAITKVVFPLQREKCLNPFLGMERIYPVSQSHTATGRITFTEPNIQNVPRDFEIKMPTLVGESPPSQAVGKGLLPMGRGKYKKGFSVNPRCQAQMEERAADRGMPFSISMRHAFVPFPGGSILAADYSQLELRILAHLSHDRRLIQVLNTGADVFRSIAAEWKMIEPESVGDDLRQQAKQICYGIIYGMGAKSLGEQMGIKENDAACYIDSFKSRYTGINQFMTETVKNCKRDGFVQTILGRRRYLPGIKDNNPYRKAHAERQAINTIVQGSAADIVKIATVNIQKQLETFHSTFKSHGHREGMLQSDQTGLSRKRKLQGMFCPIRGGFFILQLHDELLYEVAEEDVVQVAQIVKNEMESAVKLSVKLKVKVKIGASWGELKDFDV
As to the kind of experiment: Polθ Polymerase Domain Kinact/KI Assay (PicoGreen). The format is biochemical. The following applies: 0.8 nM Polθ, 100 nM DNA substrate, kobs vs [I] fit for 2-step covalent inhibitor. As for the experimental part: Polθ Polymerase Domain Kinact/KI Assay
A PicoGreen assay was used to measure the Kinact and KI values of covalent compounds that inhibit the activity of Polθ in vitro.
Human Polθ polymerase domain (aa1820-2590) was expressed in E. coli, purified, aliquoted and stored at −80° C. until required. Polθ substrate was generated from a 1.2:1 mix of DNA II Short to DNA II Long to give a final concentration of […] substrate in annealing buffer (20 mM Tris pH 7.5, 50 mM NaCl). The substrate was heated in […] aliquots to 95° C. in a heating block for 5 min before the heating block switched off, the reaction left to cool to rt and stored at −20° C. until required.
Assay measurements were performed with 1× buffer comprising 25 mM Tris pH 7.5, 12.5 mM NaCl, […], 5% (v/v) glycerol, 0.01% v/v Triton x-100, 0.1 mg/ml BSA, 1 mM DTT. Test compounds were prepared by dilution in 100% DMSO to give a 12 μM intermediate stock of each (100× final top concentration). 100 nL of 23×1:1.5-fold serial dilutions and a DMSO only control were dispensed using the Tecan dispenser into Greiner 384 well black low volume plates (product code 784076). DMSO concentration was maintained at 1% of the final assay volume by back filling with DMSO.
2× Working stock of substrate (200 nM of DNA substrate and […] dNTPs) and enzyme ([…] PolΘ) were made up in assay buffer. 5 μL/well of both enzyme and substrate 2× solutions were dispensed using a Tempest dispenser (Formulatrix) into assay plates that had been pre-dispensed with compound to give a final assay concentration of 100 nM DNA substrate, […] dNTPs and 0.8 nM Polθ. To stop the reaction, […] of a solution containing 25 mM Tris-HCl pH 7.5 and 20 mM EDTA was added at […] (t=0, 2.5, 5, 7.5, 10, 12.5, 15, 20, 25, 30, 35, 40, 45, 50, 55 and 60 min) using the Tempest's time delay function. The plates were covered during the time course to prevent evaporation. After completing the assay, 5 μL of detection reagent (25 mM Tris-HCl pH 7.5 and 2.5% (v/v) PicoGreen) was dispensed into the wells using a Tempest liquid handler (Formulatrix) and plates subsequently read on the CLARIOstar Plus (BMG Labtech) using the default optical settings for fluorescein and the auto gain/focus settings.
All data analysis was carried out using GraphPad Prism V.8 (GraphPad Software Inc, San Diego, CA) Time course data for each inhibitor concentration was fitted to equation 1 to determine kobs values.^1 Any time points where the control (DMSO alone) reaction was no longer linear were excluded from the analysis. 1) Evaluation of Enzyme Inhibitors in Drug Discovery (Ch9), R. A Copeland, Wiley, 2nd Edition 2013.
A secondary plot of kobs vs [I] is used to determine the Kinact and KI parameters (for a 2-step covalent inhibitor) by fitting to equation 2.^1
Regarding `C=CC(=O)N1C[C@H]2CN(CCN3C[C@H]4CC(=O)N(c5cc(C(F)(F)F)cc(C)n5)[C@@H]4C(=O)N(C)c4cccc(F)c43)CCN2[C@@H](C)C1` [Example 63b, (3aR,11aS)-5-(2-((6S/R,9aR/S)-8-acryloyl-6-methyloctahydro-2H-pyrazino[1,2-a]pyrazin-2-yl)ethyl)-6-fluoro-10-methyl-1-(6-methyl-4-(trifluoromethyl)pyridin-2-yl)-1,3a,4,5,10,11a-hexahydro-2H-benzo[b]pyrrolo[2,3-f][1,4]diazocine-2,11(3H)-dione], the Kinact/Kl came to 190000 M⁻¹ s⁻¹.

For `Cc1cc(C(F)(F)F)cc(N2C(=O)C[C@@H]3CN(Cc4ccn(C5CN(C(=O)/C=C/CN(C)C)C5)n4)c4c(F)cccc4N(C)C(=O)[C@H]32)n1` [Example 145, (3aR, 11aS)-5-((1-(1-((E)-4-(dimethylamino)but-2-enoyl)azetidin-3-yl)-1H-pyrazol-3-yl)methyl)-6-fluoro-10-methyl-1-(6-methyl-4-(trifluoromethyl)pyridin-2-yl)-1,3a,4,5,10,11a-hexahydro-2H-benzo[b]pyrrolo[2,3-f][1,4]diazocine-2,11(3H)-dione], the Kinact/Kl amounted to 1.34e+06 M⁻¹ s⁻¹.

In turn, `C=CC(=O)N1CC2(CN(CCN3C[C@H]4CC(=O)N(c5cc(C(F)(F)F)cc(C)n5)[C@@H]4C(=O)N(C)c4cccc(Cl)c43)C[C@H]2C#N)C1` (racemic) [Example 117b, (S/R)-2-acryloyl-6-(2-((3aR,11aS)-6-chloro-10-methyl-1-(6-methyl-4-(trifluoromethyl)pyridin-2-yl)-2,11-dioxo-1,2,3,3a,4,10,11,11a-octahydro-5H-benzo[b]pyrrolo[2,3-f][1,4]diazocin-5-yl)ethyl)-2,6-diazaspiro[3.4]octane-8-carbonitrile] gave a Kinact/Kl of 3.5e+06 M⁻¹ s⁻¹.

In turn, `C=CC(=O)N1CC(c2nc(CN3C[C@H]4CC(=O)N(c5cc(C(F)(F)F)cc(C)n5)[C@@H]4C(=O)N(C)c4cccc(F)c43)n[nH]2)C1` [Example 98, (3aR,11aS)-5-((5-(1-acryloylazetidin-3-yl)-1H-1,2,4-triazol-3-yl)methyl)-6-fluoro-10-methyl-1-(6-methyl-4-(trifluoromethyl)pyridin-2-yl)-1,3a,4,5,10,11a-hexahydro-2H-benzo[b]pyrrolo[2,3-f][1,4]diazocine-2,11(3H)-dione] returned a Kinact/Kl of 430000 M⁻¹ s⁻¹.

In turn, `C=CC(=O)N1CC(n2ccc(CN3C[C@H]4CC(=O)N(c5cc(C(F)(F)F)cc(C)n5)[C@@H]4C(=O)N(C)c4cc(F)ccc43)n2)C1` [Example 41, (3aR,11aS)-5-((1-(1-acryloylazetidin-3-yl)-1H-pyrazol-3-yl)methyl)-8-fluoro-10-methyl-1-(6-methyl-4-(trifluoromethyl)pyridin-2-yl)-1,3a,4,5,10,11a-hexahydro-2H-benzo[b]pyrrolo[2,3-f][1,4]diazocine-2,11(3H)-dione] displayed a Kinact/Kl of 1.38e+06 M⁻¹ s⁻¹.

`C=CC(=O)N1CCC[C@@H]1c1nnc(CN2C[C@H]3CC(=O)N(c4cc(C(F)(F)F)cc(C)n4)[C@@H]3C(=O)N(C)c3cccc(C)c32)o1` [Example 272, (3aR,11aS)-5-((5-((R)-1-acryloylpyrrolidin-2-yl)-1,3,4-oxadiazol-2-yl)methyl)-6,10-dimethyl-1-(6-methyl-4-(trifluoromethyl)pyridin-2-yl)-1,3a,4,5,10,11a-hexahydro-2H-benzo[b]pyrrolo[2,3-f][1,4]diazocine-2,11(3H)-dione] had a Kinact/Kl of 33000 M⁻¹ s⁻¹.

Consider `Cc1cc(C(F)(F)F)cc(N2C(=O)C[C@@H]3CN(C[C@H]4C[C@H](NC(=O)/C=C/CN(C)C)C4)c4c(C)cccc4N(C)C(=O)[C@H]32)n1` [Example 331, (E)-N-((1R,3r)-3-(((3aR,11aS)-6,10-dimethyl-1-(6-meth-yl-4-(trifluorometh-yl)pyridin-2-yl)-2,11-dioxo-1,2,3,3a, 4,10,11,11a-octa-hydro-5H-benzo[b]pyrrolo[2,3-f][1,4]diazocin-5-yl)meth-yl)cyclobutyl)-4-(dimethylamino)but-2-enamide], for which the Kinact/Kl stood at 1.85e+06 M⁻¹ s⁻¹.

With `C=CC(=O)Nc1cnc(CN2C[C@H]3CC(=O)N(c4cc(C(F)(F)F)cc(C)n4)[C@@H]3C(=O)N(C)c3cccc(Cl)c32)nc1` [Example 284, N-(2-(((3aR,11aS)-6-chloro-10-methyl-1-(6-methyl-4-(trifluoromethyl)pyridin-2-yl)-2,11-dioxo-1,2,3,3a,4,10,11,11a-octahydro-5H-benzo[b]pyrrolo[2,3-f][1,4]diazocin-5-yl)methyl)pyrimidin-5-yl)acrylamide], the Kinact/Kl was 770000 M⁻¹ s⁻¹.

On to `C=CC(=O)N1Cc2nc(CN3C[C@H]4CC(=O)N(c5cc(C(F)(F)F)cc(C)n5)[C@@H]4C(=O)N(C)c4cccc(C)c43)ccc2C1CO` (stereo partly drawn) [Example 238, (3aR,11aS)-5-((6-acryloyl-5-(hydroxymethyl)-6,7-dihydro-5H-pyrrolo[3,4-b]pyridin-2-yl)methyl)-6,10-dimethyl-1-(6-methyl-4-(trifluoromethyl)pyridin-2-yl)-1,3a,4,5,10,11a-hexahydro-2H-benzo[b]pyrrolo[2,3-f][1,4]diazocine-2,11(3H)-dione], for which the Kinact/Kl was 740000 M⁻¹ s⁻¹.

As to `C=C(CN(C)C)C(=O)N1CC(COCCN2C[C@H]3CC(=O)N(c4cc(C(F)(F)F)cc(C)n4)[C@@H]3C(=O)N(C)c3cccc(C)c32)C1` [Example 182, (3aR,11aS)-5-(2-((1-(2-((dimethyl-amino)methyl)-acryloyl)azetidin-3-yl)methoxy)eth-yl)-6,10-dimethyl-1-(6-methyl-4-(trifluoromethyl)-pyridin-2-yl)-1,3a,4,5,10,11a-hexahydro-2H-benzo[b]pyrrolo [2,3-f][1,4]diazo-cine-2,11(3H)-dione], the Kinact/Kl amounted to 5.23e+06 M⁻¹ s⁻¹.

`C=C(CN(C)C)C(=O)NCCCCCN1C[C@H]2CC(=O)N(c3cc(C(F)(F)F)cc(C)n3)[C@@H]2C(=O)N(C)c2cccc(C)c21` [Example 84, N-(5-((3aR,11aS)-6,10-dimethyl-1-(6-methyl-4-(trifluoromethyl)pyridin-2-yl)-2,11-dioxo-1,2,3,3a,4,10,11,11a-octahydro-5H-benzo[b]pyrrolo[2,3-f][1,4]diazocin-5-yl)pentyl)-2-((dimethylamino)methyl)acrylamide] registered a Kinact/Kl of 3.61e+06 M⁻¹ s⁻¹.

For `C/C=C(\CN(C)C)C(=O)Nc1ccc(CN2C[C@H]3CC(=O)N(c4cc(C(F)(F)F)cc(C)n4)[C@@H]3C(=O)N(C)c3cccc(C)c32)cc1` [Example 89, (E)-N-(4-(((3aR,11aS)-6,10-dimethyl-1-(6-methyl-4-(trifluoromethyl)pyridin-2-yl)-2,11-dioxo-1,2,3,3a,4,10,11,11a-octahydro-5H-benzo[b]pyrrolo[2,3-f][1,4]diazocin-5-yl)methyl)phenyl)-2-((dimethylamino)methyl)but-2-enamide], the Kinact/Kl turned out to be 2.4e+06 M⁻¹ s⁻¹.
